Test results reported in paper PMC7998669, “7-(2-Anilinopyrimidin-4-yl)-1-benzazepin-2-ones Designed by a “Cut and Glue” Strategy Are Dual Aurora A/VEGF-R Kinase Inhibitors” (Molecules, 2021).
pIC50: −log10 of the molar value.

Columns and labels:
Assay in all cases: radiometric 33PanQinase protein kinase assay
Type in all cases: biochemical
Conditions in all cases: 1 µM ATP
EGF-R = target: T1, EGF-R (Homo sapiens, UniProt P00533)
T1 construct: host or cells: Sf9 (baculovirus)

MET = target: T2, MET (Homo sapiens, UniProt P08581)
T2 construct: host or cells: Sf9 (baculovirus)

TIE2 = target: T3, TIE2 (Homo sapiens, UniProt Q02763)
T3 construct: host or cells: Sf9 (baculovirus)

ARK5 = target: T4, ARK5 (Homo sapiens, UniProt O60285)
T4 construct: host or cells: Sf9 (baculovirus)

IGF1-R = target: T5, IGF1-R (Homo sapiens, UniProt P08069)
T5 construct: host or cells: Sf9 (baculovirus)

FLT3 = target: T6, FLT3 (Homo sapiens, UniProt P36888)
T6 construct: host or cells: Sf9 (baculovirus)

PDK1 = target: T7, PDK1 (Homo sapiens, UniProt O15530)
T7 construct: host or cells: Sf9 (baculovirus)

INS-R = target: T8, INS-R (Homo sapiens, UniProt P06213)
T8 construct: host or cells: Sf9 (baculovirus)

ERBB2 = target: T9, ERBB2 (Homo sapiens, UniProt P04626)
T9 construct: host or cells: Sf9 (baculovirus)

SAK = target: T10, SAK (Homo sapiens, UniProt O00444)
T10 construct: host or cells: Sf9 (baculovirus)

SRC = target: T11, SRC (Homo sapiens, UniProt P12931)
T11 construct: host or cells: Sf9 (baculovirus)

EPHB4 = target: T12, EPHB4 (Homo sapiens, UniProt P54760)
T12 construct: host or cells: Sf9 (baculovirus)

CK2-alpha1 = target: T13, CK2-alpha1 (Homo sapiens, UniProt P68400)
T13 construct: host or cells: Sf9 (baculovirus)

PDGFR-beta = target: T14, PDGFR-beta (Homo sapiens, UniProt P09619)
T14 construct: host or cells: Sf9 (baculovirus)
T14 sequence (P09619 33-1106): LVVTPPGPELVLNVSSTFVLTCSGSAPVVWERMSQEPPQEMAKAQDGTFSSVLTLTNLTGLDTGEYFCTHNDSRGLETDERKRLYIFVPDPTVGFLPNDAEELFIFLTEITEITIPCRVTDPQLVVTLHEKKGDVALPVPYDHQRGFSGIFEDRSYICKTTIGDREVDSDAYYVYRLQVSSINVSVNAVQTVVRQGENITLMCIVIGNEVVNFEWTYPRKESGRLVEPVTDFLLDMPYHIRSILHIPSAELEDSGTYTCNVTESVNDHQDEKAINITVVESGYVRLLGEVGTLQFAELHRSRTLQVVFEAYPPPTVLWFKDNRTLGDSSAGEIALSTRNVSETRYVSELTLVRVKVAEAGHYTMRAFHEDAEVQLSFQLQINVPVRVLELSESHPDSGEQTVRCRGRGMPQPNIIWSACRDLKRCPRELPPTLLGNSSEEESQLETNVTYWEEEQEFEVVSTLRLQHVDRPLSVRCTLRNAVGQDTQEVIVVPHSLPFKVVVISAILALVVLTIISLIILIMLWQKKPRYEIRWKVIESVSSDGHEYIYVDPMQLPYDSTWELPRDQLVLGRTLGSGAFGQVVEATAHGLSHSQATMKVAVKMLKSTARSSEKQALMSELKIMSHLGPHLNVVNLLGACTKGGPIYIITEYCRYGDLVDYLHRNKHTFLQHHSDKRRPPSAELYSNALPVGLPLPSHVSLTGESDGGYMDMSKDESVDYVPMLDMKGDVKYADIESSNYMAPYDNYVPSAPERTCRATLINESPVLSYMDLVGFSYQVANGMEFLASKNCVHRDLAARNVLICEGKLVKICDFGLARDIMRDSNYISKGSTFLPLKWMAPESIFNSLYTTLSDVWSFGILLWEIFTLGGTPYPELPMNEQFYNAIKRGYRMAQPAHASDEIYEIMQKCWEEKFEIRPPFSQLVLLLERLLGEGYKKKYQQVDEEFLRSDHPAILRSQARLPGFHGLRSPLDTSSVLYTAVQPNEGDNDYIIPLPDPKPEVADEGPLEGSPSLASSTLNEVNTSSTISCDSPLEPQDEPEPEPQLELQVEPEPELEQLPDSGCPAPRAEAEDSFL

T8 sequence (P06213 980-1382 limits assumed): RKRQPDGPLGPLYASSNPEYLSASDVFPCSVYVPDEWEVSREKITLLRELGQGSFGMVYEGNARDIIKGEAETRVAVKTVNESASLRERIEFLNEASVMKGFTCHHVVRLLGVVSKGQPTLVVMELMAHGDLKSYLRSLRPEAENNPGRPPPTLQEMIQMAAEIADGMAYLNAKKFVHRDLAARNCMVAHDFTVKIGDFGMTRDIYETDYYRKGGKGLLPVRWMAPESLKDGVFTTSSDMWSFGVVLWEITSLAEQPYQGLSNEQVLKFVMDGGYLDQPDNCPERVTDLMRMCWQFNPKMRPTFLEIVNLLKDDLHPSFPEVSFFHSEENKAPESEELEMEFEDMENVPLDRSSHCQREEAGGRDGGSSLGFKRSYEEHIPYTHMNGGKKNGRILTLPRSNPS
T1 sequence (P00533 25-1210): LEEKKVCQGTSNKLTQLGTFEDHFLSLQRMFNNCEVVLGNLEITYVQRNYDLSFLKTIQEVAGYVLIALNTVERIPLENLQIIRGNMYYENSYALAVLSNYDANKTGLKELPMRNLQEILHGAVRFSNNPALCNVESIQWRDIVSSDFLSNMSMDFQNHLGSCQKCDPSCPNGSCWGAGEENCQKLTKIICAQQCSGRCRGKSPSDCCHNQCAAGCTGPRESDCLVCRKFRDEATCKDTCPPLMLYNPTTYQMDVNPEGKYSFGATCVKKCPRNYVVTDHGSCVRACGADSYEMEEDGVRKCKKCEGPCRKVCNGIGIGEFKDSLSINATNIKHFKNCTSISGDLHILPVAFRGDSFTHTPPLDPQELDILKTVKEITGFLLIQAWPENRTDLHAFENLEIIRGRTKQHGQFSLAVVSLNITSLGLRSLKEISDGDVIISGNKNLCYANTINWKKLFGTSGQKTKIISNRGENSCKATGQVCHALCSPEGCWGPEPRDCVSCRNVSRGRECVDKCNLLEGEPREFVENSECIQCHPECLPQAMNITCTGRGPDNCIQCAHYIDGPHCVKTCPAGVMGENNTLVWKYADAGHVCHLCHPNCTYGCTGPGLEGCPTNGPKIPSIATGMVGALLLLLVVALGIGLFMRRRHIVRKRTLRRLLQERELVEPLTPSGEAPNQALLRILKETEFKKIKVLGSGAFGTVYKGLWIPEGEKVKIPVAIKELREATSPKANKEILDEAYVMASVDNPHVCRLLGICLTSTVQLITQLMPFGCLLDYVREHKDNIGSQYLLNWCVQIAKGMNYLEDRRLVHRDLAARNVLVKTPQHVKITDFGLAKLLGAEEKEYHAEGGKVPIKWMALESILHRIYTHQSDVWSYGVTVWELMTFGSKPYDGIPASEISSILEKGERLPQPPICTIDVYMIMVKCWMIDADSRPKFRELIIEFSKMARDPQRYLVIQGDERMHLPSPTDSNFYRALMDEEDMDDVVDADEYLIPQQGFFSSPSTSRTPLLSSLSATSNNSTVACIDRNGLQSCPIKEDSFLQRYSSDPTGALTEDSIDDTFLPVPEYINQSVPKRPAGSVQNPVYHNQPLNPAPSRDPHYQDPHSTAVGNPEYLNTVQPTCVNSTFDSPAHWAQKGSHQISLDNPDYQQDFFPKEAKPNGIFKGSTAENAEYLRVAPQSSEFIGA
T9 sequence (P04626 23-1255): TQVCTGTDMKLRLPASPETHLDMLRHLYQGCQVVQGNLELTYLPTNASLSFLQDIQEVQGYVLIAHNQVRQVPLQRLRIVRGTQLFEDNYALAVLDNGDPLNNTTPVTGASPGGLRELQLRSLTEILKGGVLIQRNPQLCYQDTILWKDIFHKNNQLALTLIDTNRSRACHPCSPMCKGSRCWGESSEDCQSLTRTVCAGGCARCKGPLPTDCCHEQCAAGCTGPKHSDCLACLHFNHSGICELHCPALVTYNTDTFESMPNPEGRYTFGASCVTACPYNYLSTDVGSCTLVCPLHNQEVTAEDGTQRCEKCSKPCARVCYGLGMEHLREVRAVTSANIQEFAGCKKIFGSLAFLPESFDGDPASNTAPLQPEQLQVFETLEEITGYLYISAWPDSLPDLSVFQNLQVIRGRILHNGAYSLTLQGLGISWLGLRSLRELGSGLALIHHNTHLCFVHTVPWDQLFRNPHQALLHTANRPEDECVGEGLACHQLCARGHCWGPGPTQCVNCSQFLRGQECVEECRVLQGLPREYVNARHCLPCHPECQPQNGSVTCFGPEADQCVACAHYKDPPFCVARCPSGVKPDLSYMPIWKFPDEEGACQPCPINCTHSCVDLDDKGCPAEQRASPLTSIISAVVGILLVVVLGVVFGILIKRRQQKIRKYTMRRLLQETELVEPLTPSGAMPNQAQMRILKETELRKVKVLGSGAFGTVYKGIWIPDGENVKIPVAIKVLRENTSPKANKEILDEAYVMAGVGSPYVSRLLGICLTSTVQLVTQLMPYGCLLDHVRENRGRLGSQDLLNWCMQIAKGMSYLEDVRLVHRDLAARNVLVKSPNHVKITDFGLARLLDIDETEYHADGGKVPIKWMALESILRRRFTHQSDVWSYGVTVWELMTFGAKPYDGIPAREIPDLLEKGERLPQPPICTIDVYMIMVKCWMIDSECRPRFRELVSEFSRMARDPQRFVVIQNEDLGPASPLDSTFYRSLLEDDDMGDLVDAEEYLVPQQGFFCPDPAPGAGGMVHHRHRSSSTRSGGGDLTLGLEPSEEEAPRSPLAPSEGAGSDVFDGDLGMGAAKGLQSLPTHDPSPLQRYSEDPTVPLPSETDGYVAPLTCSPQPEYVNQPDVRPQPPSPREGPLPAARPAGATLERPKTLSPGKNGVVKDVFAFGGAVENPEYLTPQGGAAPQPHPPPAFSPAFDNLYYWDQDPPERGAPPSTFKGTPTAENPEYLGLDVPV
T3 sequence (Q02763 23-1124): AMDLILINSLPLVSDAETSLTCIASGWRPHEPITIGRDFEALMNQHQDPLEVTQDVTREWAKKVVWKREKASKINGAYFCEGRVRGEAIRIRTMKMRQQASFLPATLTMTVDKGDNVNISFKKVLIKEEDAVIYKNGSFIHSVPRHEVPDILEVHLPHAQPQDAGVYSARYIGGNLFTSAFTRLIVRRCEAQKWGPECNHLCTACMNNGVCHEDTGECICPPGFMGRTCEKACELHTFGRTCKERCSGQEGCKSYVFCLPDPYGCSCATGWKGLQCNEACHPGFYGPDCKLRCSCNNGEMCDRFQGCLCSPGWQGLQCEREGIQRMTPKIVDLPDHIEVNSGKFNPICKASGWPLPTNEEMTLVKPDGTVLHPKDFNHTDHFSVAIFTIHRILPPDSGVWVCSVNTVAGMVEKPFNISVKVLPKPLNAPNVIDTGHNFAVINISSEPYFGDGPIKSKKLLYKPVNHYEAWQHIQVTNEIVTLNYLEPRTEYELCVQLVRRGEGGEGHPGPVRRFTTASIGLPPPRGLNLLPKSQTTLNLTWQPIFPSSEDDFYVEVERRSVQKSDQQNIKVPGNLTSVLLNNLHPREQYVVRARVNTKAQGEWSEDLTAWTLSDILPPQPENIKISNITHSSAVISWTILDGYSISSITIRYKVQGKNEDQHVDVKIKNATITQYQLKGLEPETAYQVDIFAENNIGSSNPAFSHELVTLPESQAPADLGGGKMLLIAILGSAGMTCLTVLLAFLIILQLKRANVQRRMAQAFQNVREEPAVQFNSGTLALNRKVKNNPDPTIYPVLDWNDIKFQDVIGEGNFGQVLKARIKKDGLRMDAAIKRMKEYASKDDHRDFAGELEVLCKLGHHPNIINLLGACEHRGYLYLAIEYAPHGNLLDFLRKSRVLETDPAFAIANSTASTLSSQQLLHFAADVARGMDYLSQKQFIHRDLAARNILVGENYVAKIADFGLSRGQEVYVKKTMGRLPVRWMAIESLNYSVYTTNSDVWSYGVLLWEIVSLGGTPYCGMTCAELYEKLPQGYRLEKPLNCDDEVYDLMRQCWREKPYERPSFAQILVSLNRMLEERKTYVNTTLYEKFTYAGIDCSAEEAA

- pIC50 (EGF-R): < 4.00
- pIC50 (MET): < 4.00
- pIC50 (TIE2): 4.72
- pIC50 (ARK5): < 4.00
- pIC50 (IGF1-R): < 4.00
- pIC50 (FLT3): 4.80
- pIC50 (PDK1): < 4.00
- pIC50 (INS-R): < 4.00
- pIC50 (ERBB2): < 4.00
- pIC50 (SAK): < 4.00
- pIC50 (SRC): 4.13
- pIC50 (EPHB4): < 4.00
- pIC50 (CK2-alpha1): < 4.00
- pIC50 (PDGFR-beta): 4.36
SMILES: O=C1CCCc2cc(-c3ccnc(Nc4ccccc4)n3)ccc2N1 [Compound 2a, 7-(2-Anilinopyrimidin-4-yl)-1,3,4,5-tetrahydro-2H-1-benzazepin-2-one]
